Data on nine molecules can be found in patent US7381731B2, “Pharmaceutical composition comprising citrulline” (Angiogenix, Inc., priority 1994, dated 2008).

Test [1] relates to y^+ transporter. The test is described as follows: y+ transport of [3H]-LA in cells exposed to NOS agonists or NO donors, sodium-free uptake buffer. The conditions noted are these: for maximum inhibition of y+ transport: FIG. 16; for inhibition of L-arginine transport: data not shown; for increase of [3H]-LA uptake: Ach 5 μM; for increase of y+ transport of L-arginine / increase of y+ transporter activity from control: SP 1 μM. In kind it is cell-based, bovine. On the procedure: Effect of NOS agonists on cellular uptake of LA.
Effect of NO donors on cellular uptake of LA.
In order to confirm whether the reduction in cellular uptake of [^3H]-LA was due to NO released from SNAP, experiments were performed using another NO donor, DPTA-NONOate. Unlike SNAP, which donates large amounts of NO over a short time period (t1/2˜10 minutes), the use of DPTA-NONOate allows for a slower (t1/2˜5 hours), more sustained release of NO that is constant over time.

The subject of test [2] is bovine aortic endothelial cells (BAEC). Kind of test: Superoxide anion (O2*—) formation in BAEC. The test is classed as cell-based. To be noted: for increase of O2*— production above basal levels: 1 μM; for increase of O2*— production above basal levels / prevention of basal production of O2*—: 60 minute period; for inhibition of O2*— production induced by A-23187: A-23187 1 μM; for inhibition of O2*— production induced by A-23187 / reduction of O2*— induced by SP: concurrent treatment 5×10^−4M; for reduction of O2*— induced by SP: SP 1 μM; for prevention of basal production of O2*—: supplementation 5×10^−4M. An excerpt:
Cellular superoxide anion formation—Effect of NOS agonists on cellular superoxide anion formation.

For test [3], the system named is cultured bovine aortic EC. Kind of test: DOX as NOS agonist: NO production by oxyhemoglobin/methemoglobin conversion and NO sensitive electrode. The test is classed as cell-based. On the procedure: In fact, a wide variety of vasoactive agents (e.g., bradykinin, muscarinic agonists and growth factors) which increase tPA levels are also agonists of nitric oxide synthase (NOS). DOX activity as a NOS agonist was investigated in cultured bovine aortic EC using two methods to assess NO production: conversion of oxyhemoglobin to methamoglobin and a NO sensitive electrode.
For all experiments described herein, human coronary artery endothelial cells (passage 3-5-Clonetics) were maintained at 37°, […] and 5% CO2 in Medium 199 (M199) supplemented with 5% fetal bovine serum (FBS, Hyclone), 10% iron supplemented FBS (Hyclone), thymidine ([…]), penicillin G (100 U mL^−1) and streptomycin (100 μmL^−1). […] Acetylcholine, an eNOS agonist, was used in all experiments as the positive control at concentrations of 10^−7 and 10^−6 M.
Nitric Oxide Measurements. Methemoglobin—The effect of DOX on NO production in EC was determined using a photometric assay for conversion of oxyhemoglobin to methemoglobin. […] Perfusate is then directed into a flow-through cuvette in a dual wavelength spectrophotometer and change in absorbency (415/405 nm) is measured. Experimental stimulation was carried out by 3 min infusion periods of DOX added to buffer perfusion to yield final concentrations of 10^−7 and 10^−6 M. For analysis, we determined the area under the curve for the change in absorbency response/min caused by DOX assuming a one to one correspondence for NO and metHb production, the known stoichiometric balance for this reaction. NO production was measured with a NO meter connected to a polargraphic NO electrode as previously described. The NO sensor probe will be inserted vertically into 24-well plates containing confluent EC such that the tip of the electrode is submerged 2 mm under the surface of medium (above −1 ml). The reaction was initiated when desired concentrations of DOX are added to the well. Calibrations were performed with S-nitroso-acetyl-penicillamine.

Test [4] relates to bovine aortic endothelial cells (BAEC). The test is described as follows: NO production by endothelial cells on beads, photometric oxyhemoglobin to methemoglobin assay. In kind it is cell-based. An excerpt: NO oxidize; oxyhemoglobin (HbO2) to methemoglobin (metHb) in the following reaction HbO2+NO−metHb+NO3. The amount of NO produced by endothelial cells was quantified by measuring the change in absorbance as HbO2 oxidizes to metHb. Oxyhemoglobin has a absorbance peak at 415 nm, while methb has a 406 nm absorbance peak. By subtracting the absorbance of metHb from HbO2, the concentration of NO can be assessed. The general method was patterned after that of Feelisch et al., (Biochem. and Biophy. Res. Comm. 1991; 180, Nc I:286-293).
The effects of pravastatin on activity of endothelial cells in producing NO were compared with those of actetylcholine, which is known to specifically stimulate NO production by NOS activity.

For the molecule `CC(=O)N[C@@H](C(=O)O)C(C)(C)SN=O` (racemic) [SNAP, s-nitroso-acetyl-penicillamin], the “increase of activity of the y+ transporter” value in test [1] (200 μM SNAP (0.4 μM NO), ten minutes of exposure) came to 37%. The “elevation of activity of the y+ transporter” value in test [1] (200 μM SNAP, 30 minute exposure) is given as “not seen”. For the same molecule, the “reduction of uptake of [3H]-LA” value in test [1] (200 μM SNAP, 1 hour) came out at 22%; in test [1] (200 μM SNAP, 2 hour exposure), 46%; in test [1] (200 μM SNAP, 3 hour exposure), 45%; in test [1] (200 μM SNAP, 5 hour exposure), 36%.

Regarding `CNc1ccc2oc(C[C@H]3O[C@@]4(CC[C@H]3C)O[C@H]([C@H](C)C(=O)c3ccc[nH]3)[C@H](C)C[C@H]4C)nc2c1C(=O)O` [A-23187], in test [2], the “increase of O2*— production above basal levels” value is 2.5 fold.

Turning to `COc1cc2nc(N3CCN(C(=O)C4COc5ccccc5O4)CC3)nc(N)c2cc1OC` (centres unmarked) [DOX, Doxazosin], the “increase in NO production” value in test [3] (DOX 10^−7-10^−5 M, dose-related) is reported as 64-145%.

Turning to `NCCCN(CCCN)/[N+]([O-])=N/O` [DPTA-NONOate, dipropylenetriamine NONOate], the “maximum inhibition of y+ transport” value amounted to 20% in test [1] (0.01 μM, 2 hour exposure); 24% in test [1] (1 μM, 2 hour exposure); 44% in test [1] (10 μM, 2 hour exposure). The “effect on y+ system” value in test [1] (1 μM DPTA-NONOate (2 μM NO), 15 and 30 min) is “no significant effect”. For the same molecule, the “inhibition of L-arginine transport” value is reported as 22% in test [1] (1 μM DPTA-NONOate (2 μM NO), 1 hour exposure); 24% in test [1] (1 μM DPTA-NONOate (2 μM NO), 2 hour exposure); 29% in test [1] (1 μM DPTA-NONOate (2 μM NO), 4 hour exposure).

As to `COC(=O)[C@@H](N)CCCNC(=N)N[N+](=O)[O-]` [L-NAME, n-ω-nitro-L-arginine methyl ester], the “reduction of acetylcholine-induced production of NO” value in test [4] (buffer containing L-NAME 10^−3 M) was 80%. In addition, the “NO production in response to pravastatin” value in test [4] (superfusion with L-NAME 10^−3 M) was “blunted”. Further, in test [3] (ACH 10^−6 M, prior L-NAME), the “block of increase in NO to ACH” value is 86%. Further, the “block of increase in NO to DOX” value in test [3] (DOX 10^−6 M, prior L-NAME 5×10^−4 M) is on record as 72%. Moreover, in test [2], the “inhibition of O2*— production induced by A-23187” value turned out to be 58%, the “reduction of O2*— induced by SP” value was 81% and the “prevention of basal production of O2*—” value amounted to 100%.

As for `N=C(N)NCCC[C@H](N)C(=O)O` [L-arginine], the “acetylcholine-elicited production of NO” value in test [4] (L-NAME buffer replaced with buffer containing L-arginine 10^−3 M) is on record as “returned to control levels”. The “NO production in response to pravastatin” value in test [4] (subsequent perfusion with buffer containing L-arginine 10^−3 M) is recorded as “return in NO production to a level above the amount induced by the Pravastatin in control (basis) buffer”. The “accentuation of NO responses to ACH” value in test [3] (supplemental L-arginine) is 72%. Besides, in test [3] (supplemental L-arginine 5×10^−4 M), the “accentuation of NO responses to DOX” value was 65%. Moreover, in test [2], the “inhibition of O2*— production induced by A-23187” value turned out to be 60%, the “reduction of O2*— induced by SP” value worked out at 51% and the “prevention of basal production of O2*—” value is on record as “not”.

As for `CC(=O)OCC[N+](C)(C)C` [acetylcholine], the “increase of [3H]-LA uptake” value is reported as 22% in test [1] (2 minute exposure), 27% in test [1] (15 minute (maximum)), 16% in test [1] (30 minutes) and 15.5% in test [1] (60 minutes).

On to `CC[C@H](C)C(=O)O[C@H]1C[C@H](O)C=C2C=C[C@H](C)[C@H](CC[C@@H](O)C[C@@H](O)CC(=O)O)[C@H]21` [pravastatin], for which the “increment in NO response to the 10^−5 M concentration” value in test [4] (pravastatin 10^−5 M, larger than that of acetylcholine) is approximately 3 X.

substance P [SP]: the “increase of y+ transport of L-arginine” value in test [1] (15-minutes exposure) was determined as 24%; in test [1] (30 minutes) it was 24%; in test [1] (60 minutes), 21%. Besides, the “increase of y+ transporter activity from control” value turned out to be 34% in test [1] (2 hour exposure), 27% in test [1] (3 hour exposure) and 21% in test [1] (5 hour exposure). In addition, the “increase of O2*— production above basal levels” value in test [2] worked out at 3.5 fold.
